Square brackets hold non-standard residues; d marks the D form. Peptide text beside a SMILES is read from it.
Key:
[1] = system: lungs of healthy CD1 mice; experiment: Lung gene expression (RNA-seq) after intratracheal instillation; assay type: in vivo, mouse; conditions: i.t. 0.1 mg/kg (20 μM), 24 h, vs PBS-treated animals
Protocol: All animal experiments were carried out based on a protocol (n. 20087639) approved by the Institutional Animal Care and Use Committee of the University of Pittsburgh according to the National Institutes of Health (NIH) guide for the care and use of laboratory animals. Seven-week-old female wild-type CD1 mice were anesthetized by isoflurane inhalation and instilled intratracheally with 50 µL of peptide solution (0.1 mg/kg, i.e., 20 μM) or PVA-PLGA NP suspension (either bare NPs or NPs loaded with each peptide at 0.1 mg/kg), in PBS. Control mice were given 50 µL of PBS without peptide. After 24 h, mice were euthanized for lung tissue isolation to extract RNA for differential expression analysis (sequencing work was performed by Novogene US Marketing).

[2] = system: CD1 mice; experiment: Mouse toxicity: histopathology after intratracheal instillation; assay type: in vivo
Protocol: Five-week-old female wild-type CD1 mice were anesthetized by isoflurane inhalation and instilled intratracheally with 1.5 mg/kg (corresponding to 300 μM) of Esc(1-21)-1c in the free or encapsulated form in 50 μL of PBS. Mice instilled with 50 μL of PBS or bare PVA-PLGA NPs were included for control. […] Tissues were fixed in situ with 4% paraformaldehyde for 10 min with open chest cavity. They were then embedded in paraffin, and 5 µm-thick tissue slices were prepared by staining in hematoxylin and eosin and analyzed for pathological severity. In parallel, another group of seven animals was anesthetized by isoflurane inhalation and instilled intratracheally with escalating concentrations up to 7 mg/kg Esc(1-21)-1c in 50 μL of PBS and monitored for survival to determine the MTDs.

[3] = system: CD1 mice; experiment: Maximum tolerated dosage (MTD) and therapeutic index; assay type: in vivo, mouse
Protocol: Five-week-old female wild-type CD1 mice were anesthetized by isoflurane inhalation and instilled intratracheally with 1.5 mg/kg (corresponding to 300 μM) of Esc(1-21)-1c in the free or encapsulated form in 50 μL of PBS. Mice instilled with 50 μL of PBS or bare PVA-PLGA NPs were included for control. After 1 day and 14 days, mice were euthanized for tissue isolation and examined for histopathology. Tissues were fixed in situ with 4% paraformaldehyde for 10 min with open chest cavity. They were then embedded in paraffin, and 5 µm-thick tissue slices were prepared by staining in hematoxylin and eosin and analyzed for pathological severity. In parallel, another group of seven animals was anesthetized by isoflurane inhalation and instilled intratracheally with escalating concentrations up to 7 mg/kg Esc(1-21)-1c in 50 μL of PBS and monitored for survival to determine the MTDs.

[4] = Stability in bronchoalveolar lavage fluid (BAL); assay type: in vitro ADME, mouse
Protocol: Bronchoalveolar lavage fluid (BAL) was collected from male and female C57BL/6 mice (4–5 months old) according to the procedure described in [31, 32]. Mice were euthanized by means of CO2 narcosis; a small incision at the level of the neck was made and a blunt needle connected to a syringe was inserted into the trachea. Then, lungs were washed with 1 mL of sterile PBS. BAL samples from each mouse were pooled, centrifuged at 1000 rpm (corresponding to […]) for 5 min, and stored at −80 °C. The supernatant was used for stability tests.
Peptides were dissolved in 400 µL of PBS at a concentration of 300 µM, and added to an equal volume of BAL at a final concentration of 150 µM. At different time points, 150 μL aliquots were withdrawn and added to 500 µL of acetonitrile, and then centrifuged. The supernatants were diluted with 160 μL of 0.1% trifluoroacetic acid (TFA)—water and analyzed by RP-HPLC and mass spectrometry. Liquid chromatography was performed on a Phenomenex Jupiter C18 analytical column (300 Å, 5 μm, 250 × 4.6 mm) in a 30 min gradient, using 0.1% TFA in water as solvent A and acetonitrile as solvent B. Mass spectrometry analysis of diluted samples was performed with a Bruker Daltonic-ultraflex-matrix-assisted laser desorption ionization tandem time-of-flight (MALDI-TOF/TOF) mass spectrometer.

[5] = cited from earlier work
Text: This last feature is not shown by any traditional antibiotic and is expected to accelerate the healing of a damaged lung epithelium, especially in CF lungs, where wound-healing processes are highly compromised. Interestin ...

CC[C@H](C)[C@H](NC(=O)CN)C(=O)N[C@@H](Cc1ccccc1)C(=O)N[C@@H](CO)C(=O)N[C@@H](CCCCN)C(=O)N[C@@H](CC(C)C)C(=O)N[C@@H](C)C(=O)NCC(=O)N[C@@H](CCCCN)C(=O)N[C@@H](CCCCN)C(=O)N[C@H](C(=O)N[C@@H](CCCCN)C(=O)N[C@@H](CC(N)=O)C(=O)N[C@H](CC(C)C)C(=O)N[C@@H](CC(C)C)C(=O)N[C@H](C(=O)N[C@H](CO)C(=O)NCC(=O)N[C@@H](CC(C)C)C(=O)N[C@@H](CCCCN)C(=O)NCC(N)=O)[C@@H](C)CC)[C@@H](C)CC [Esc(1-21)-1c] (H-GIFSKLAGKKIKN[dL]LI[dS]GLKG-NH2)
Log2FC, gene Chil1 (up) [1]: 34.248 | Log2FC, gene Dynlt1f (up) [1]: 19.702 | Log2FC, gene Eif4a-ps4 (up) [1]: 17.867 | Log2FC, gene Rpl26 (up) [1]: 20.049 | Log2FC, gene Snhg11 (down) [1]: −1.949 | lung histology: inflammatory response or lung tissue damage ([2]; CD1 mice, i.t. 1.5 mg/kg (~300 µM) peptide free or encapsulated, or corresponding amount of bare NPs, 1 day and 14 days, H&E): did not detect any inflammatory response | histology of other organs (liver and kidneys) ([2]; CD1 mice, i.t. 1.5 mg/kg free or encapsulated, 1 day and 14 days, vs control): no visible tissue injury, necrosis, or alteration in cell density | histology of liver, spleen and kidneys ([2]; mice, i.t. 7 mg/kg, 48 h, vs control): no alteration in the tissue structure | lung histopathology: recruitment of inflammatory cells ([2]; mice, i.t. 7 mg/kg, within 48 h, vs PBS-treated mice): did not reveal significant recruitment of inflammatory cells | range of motion ([3]; 1 h and 24 h after i.t. instillation at 7 mg/kg): maintained the same range of motion | maximum tolerated dosage (highest dosage tested, well-tolerated) ([3]; i.t. instillation, increasing concentrations from 1.5 to 7 mg/kg in 50 μL PBS, survival monitored for 14 days): ≥ 7 mg/kg | survival ([3]; i.t. up to 7 mg/kg, monitored for 14 days): remained viable for the entire duration of the experiment | time in BAL at which the peak of the full-length peptide (2185 Da) is still detected ([4]; mouse (C57BL/6) BAL supernatant mixed 1:1 with peptide in PBS, 300 μM (method: final 150 µM), time points 6 and 24 h, acetonitrile work-up, RP-HPLC C18 and MALDI-TOF/TOF): ≥ 24 h | time of incubation with BAL after which the full-length peptide (2185 Da) is detectable ([4]; mouse BAL, high peptide concentration (as for 7 mg/kg), mass spectra (Figure S5)): ≥ 48 h | resistance to enzymatic degradation compared with Esc(1-21) [5]: more resistant to enzymatic degradation

From PMC9697339, “Pulmonary Safety Profile of Esc Peptides and Esc-Peptide-Loaded Poly(lactide-co-glycolide) Nanoparticles: A Promising Therapeutic Approach for Local Treatment of Lung Infectious Diseases” (Pharmaceutics, 2022)
